The structures appear in SMILES notation.

Tested on in one data set: not listed separately
The data set is described as follows: Cytotoxicity against African green monkey Vero cells assessed as inhibition of cell growth measured after 3 days by MTT assay. Format: toxicity, cell-based. Particulars: African green monkey (Chlorocebus sabaeus).
Turning to `COc1ccc(NC(=O)C2=C(C)NC(=S)NC2/C=C\c2ccccc2)c(OC)c1` (configuration not stated), the IC50 at 3 days came to 47.3 µM.
Turning to `COc1ccc(NC(=O)C2=C(C)NC(=O)NC2)c(OC)c1`, the IC50 at 3 days was 87.2 µM.
As for `COc1ccc(NC(=O)C2=C(C)NC(=S)NC2c2ccccc2O)c(OC)c1` (configuration not stated), the IC50 at 3 days was 60.4 µM.
With `COc1ccc(NC(=O)C2=C(C)NC(=S)NC2c2ccc(Br)cc2)c(OC)c1` (configuration not stated), the IC50 at 3 days was 61.2 µM.
As to `COc1ccc(NC(=O)C2=C(C)NC(=S)NC2c2ccc(OC)c(OC)c2)c(OC)c1` (configuration not stated), the IC50 at 3 days stood at 43.9 µM.
As for `COc1ccc(NC(=O)C2=C(C)NC(=S)NC2c2ccco2)c(OC)c1` (configuration not stated), the IC50 at 3 days was found to be 45.5 µM.

The subject of a further data set is MCF7. As to the kind of experiment: Cytotoxicity against human MCF7 cells assessed as inhibition of cell growth measured after 3 days by MTT assay. Format: functional, cell-based. The note with it: MCF7, 72 h.
As to `COc1ccc(NC(=O)C2=C(C)NC(=S)NC2/C=C\c2ccccc2)c(OC)c1` (configuration not stated), the IC50 was 24.5 µM.
`COc1ccc(NC(=O)C2=C(C)NC(=O)NC2)c(OC)c1`: the IC50 was determined as 81.5 µM.
Same read-out and setting: under `COc1ccc(NC(=O)C2=C(C)NC(=S)NC2c2ccccc2O)c(OC)c1` (configuration not stated) stands 32.1 µM.
Regarding `COc1ccc(NC(=O)C2=C(C)NC(=S)NC2c2ccc(Br)cc2)c(OC)c1` (configuration not stated), the IC50 was determined as 37.5 µM.
`COc1ccc(NC(=O)C2=C(C)NC(=S)NC2c2ccc(OC)c(OC)c2)c(OC)c1` (configuration not stated): the IC50 came out at 17.3 µM.
For `COc1ccc(NC(=O)C2=C(C)NC(=S)NC2c2ccco2)c(OC)c1` (configuration not stated), the IC50 worked out at 38.3 µM.

Source of the values: ChEMBL document CHEMBL5584246, “Novel dihydropyrimidines as promising EGFR & HER2 inhibitors: Insights from experimental and computational studies” (Eur J Med Chem, 2024).
